According to ChEMBL document CHEMBL1201862, “PubChem BioAssay data set” (2004):
Activity calls are given as the source filed them.

Legend:
[1] = molecular target: T1, Heat shock factor protein 1 (Mus musculus, UniProt P38532); assay: inhibition of MG132-induced HSE-luciferase signal, confirmation, cell-based, NIH3T3, luminescence, dose retest (AID 2382); format: functional;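 note: NIH3T3 fibroblasts with HSF1-driven luciferase reporter stressed by proteasome inhibitor MG132; luminescence from HSF1-driven luciferase expression after 8 hours of MG132 stress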
T1 sequence (P38532 whole entry): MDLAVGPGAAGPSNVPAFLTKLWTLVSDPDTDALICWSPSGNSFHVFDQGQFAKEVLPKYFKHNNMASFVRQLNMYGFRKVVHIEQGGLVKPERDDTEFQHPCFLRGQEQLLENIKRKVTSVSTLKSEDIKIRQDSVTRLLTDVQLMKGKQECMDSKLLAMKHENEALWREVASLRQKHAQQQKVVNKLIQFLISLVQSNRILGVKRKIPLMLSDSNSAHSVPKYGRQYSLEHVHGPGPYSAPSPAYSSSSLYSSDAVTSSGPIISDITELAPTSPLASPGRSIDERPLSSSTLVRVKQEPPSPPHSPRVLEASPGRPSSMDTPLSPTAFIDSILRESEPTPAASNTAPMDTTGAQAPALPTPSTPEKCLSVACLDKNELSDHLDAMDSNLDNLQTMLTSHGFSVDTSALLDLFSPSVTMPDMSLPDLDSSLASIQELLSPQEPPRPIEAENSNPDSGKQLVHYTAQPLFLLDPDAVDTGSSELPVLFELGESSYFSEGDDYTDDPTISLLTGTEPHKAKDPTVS

Prothrombin = Prothrombin (Bos taurus, UniProt P00735); assay: thrombin inhibition, dose response, biochemical, fluorescence polarization, uHTS hits (AID 602369); format: functional
[2] = molecular target: T2, DNA repair protein RAD52 homolog (Homo sapiens, UniProt P43351); format: functional, biochemical
T2 sequence (P43351 whole entry): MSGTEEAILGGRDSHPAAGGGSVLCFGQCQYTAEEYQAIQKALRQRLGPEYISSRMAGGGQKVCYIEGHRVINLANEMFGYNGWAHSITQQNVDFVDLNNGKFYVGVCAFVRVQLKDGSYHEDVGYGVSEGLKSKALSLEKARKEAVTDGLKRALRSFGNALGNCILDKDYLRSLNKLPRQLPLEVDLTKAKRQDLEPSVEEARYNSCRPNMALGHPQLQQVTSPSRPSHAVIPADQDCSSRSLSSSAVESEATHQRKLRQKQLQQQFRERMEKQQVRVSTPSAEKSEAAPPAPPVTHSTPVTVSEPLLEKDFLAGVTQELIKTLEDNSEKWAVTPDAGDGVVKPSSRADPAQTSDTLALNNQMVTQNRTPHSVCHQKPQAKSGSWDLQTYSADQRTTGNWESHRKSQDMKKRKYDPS

BJ [3] = assay: cytotoxicity toward Ras-transformed BJeLR fibroblasts, dose response, cell-based, alamar blue fluorescence, cherrypicked samples (AID 2631); format: functional; conditions: Homo sapiens;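 note: confirmatory dose-response assay in RAS-dependent BJ fibroblasts engineered with TERT, LT and ST, with cytotoxicity read by fluorescence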
BJ [4] = assay: cytotoxicity toward BJ-TERT fibroblasts, dose response, cell-based, RAS-independent, luminescence (AID 1933); format: functional; conditions: Homo sapiens
[5] = molecular target: 72 kDa type IV collagenase (Homo sapiens, UniProt P08253); assay: Dose Response validation of uHTS RPN11 inhibitor hits using a MMP-2 Fluorescence assay.; format: functional
72 kDa type IV collagenase, sequence (P08253 whole entry): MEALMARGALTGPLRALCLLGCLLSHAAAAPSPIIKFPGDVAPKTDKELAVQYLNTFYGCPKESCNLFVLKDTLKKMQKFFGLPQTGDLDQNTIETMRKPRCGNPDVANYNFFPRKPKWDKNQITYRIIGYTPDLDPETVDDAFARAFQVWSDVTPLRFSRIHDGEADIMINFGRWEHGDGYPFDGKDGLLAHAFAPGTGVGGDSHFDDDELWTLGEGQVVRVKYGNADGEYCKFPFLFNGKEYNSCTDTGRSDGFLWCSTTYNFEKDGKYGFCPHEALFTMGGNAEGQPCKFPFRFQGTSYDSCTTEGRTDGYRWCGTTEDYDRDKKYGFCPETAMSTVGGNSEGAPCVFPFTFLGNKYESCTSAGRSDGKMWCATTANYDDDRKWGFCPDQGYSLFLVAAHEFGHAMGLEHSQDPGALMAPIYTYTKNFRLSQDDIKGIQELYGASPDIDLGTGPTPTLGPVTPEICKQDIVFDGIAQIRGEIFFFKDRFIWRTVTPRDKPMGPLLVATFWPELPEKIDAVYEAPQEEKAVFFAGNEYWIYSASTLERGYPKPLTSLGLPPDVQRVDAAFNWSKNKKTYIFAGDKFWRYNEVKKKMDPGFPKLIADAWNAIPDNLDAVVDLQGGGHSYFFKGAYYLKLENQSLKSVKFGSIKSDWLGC

[6] = molecular target: 26S proteasome non-ATPase regulatory subunit 14 (Homo sapiens, UniProt O00487); assay: inhibition of proteasome subunit RPN11 – biochemical, fluorescence polarization, uHTS hits, confirmation (AID 602368); format: functional
26S proteasome non-ATPase regulatory subunit 14, sequence (O00487 whole entry): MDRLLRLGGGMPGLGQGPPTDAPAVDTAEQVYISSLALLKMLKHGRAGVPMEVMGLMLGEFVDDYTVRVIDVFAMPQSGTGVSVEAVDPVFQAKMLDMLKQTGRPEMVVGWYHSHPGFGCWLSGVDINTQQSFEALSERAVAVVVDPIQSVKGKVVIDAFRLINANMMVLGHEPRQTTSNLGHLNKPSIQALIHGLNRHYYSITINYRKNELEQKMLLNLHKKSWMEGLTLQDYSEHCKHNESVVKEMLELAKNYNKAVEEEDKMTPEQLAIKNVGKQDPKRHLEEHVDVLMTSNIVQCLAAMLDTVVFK

BJ [7] = assay: cytotoxicity toward BJ-TERT-LT-ST fibroblasts, dose response, cell-based, RAS-independent, luminescence (AID 1935); format: functional; conditions: Homo sapiens;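 note: BJ fibroblasts immortalized with TERT plus LT and ST oncogenes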
[8] = cytotoxicity toward DRD oncogenic fibroblasts, dose response, cell-based, non-viral oncogenic, luminescence (AID 1934); format: functional; conditions: Homo sapiens
BJ [9] = assay: cells; format: functional, cell-based; conditions: Homo sapiens
[10] = molecular target: T3, Low molecular weight phosphotyrosine protein phosphatase (Homo sapiens, UniProt P24666); format: functional; conditions: read-out: IC50_Mean;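 note: Dose-response confirmation assay measuring inhibition of LMPTP enzyme activity by fluorescence intensity read-out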
T3 sequence (P24666 whole entry): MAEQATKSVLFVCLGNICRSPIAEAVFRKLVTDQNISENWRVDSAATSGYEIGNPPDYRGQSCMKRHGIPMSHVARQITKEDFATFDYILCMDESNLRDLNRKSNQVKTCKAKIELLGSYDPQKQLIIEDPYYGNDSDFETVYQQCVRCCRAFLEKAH

[11] = molecular target: T4, Corticotropin-releasing factor receptor 2/Corticotropin-releasing factor-binding protein (Homo sapiens, UniProt P24387+Q13324); assay: Dose Response confirmation of uHTS hits for small molecule antagonists of the CRF-binding protein and CRF-R2 receptor complex.; format: functional; conditions: read-out: IC50_Mean
T4 sequence (Q13324 whole entry): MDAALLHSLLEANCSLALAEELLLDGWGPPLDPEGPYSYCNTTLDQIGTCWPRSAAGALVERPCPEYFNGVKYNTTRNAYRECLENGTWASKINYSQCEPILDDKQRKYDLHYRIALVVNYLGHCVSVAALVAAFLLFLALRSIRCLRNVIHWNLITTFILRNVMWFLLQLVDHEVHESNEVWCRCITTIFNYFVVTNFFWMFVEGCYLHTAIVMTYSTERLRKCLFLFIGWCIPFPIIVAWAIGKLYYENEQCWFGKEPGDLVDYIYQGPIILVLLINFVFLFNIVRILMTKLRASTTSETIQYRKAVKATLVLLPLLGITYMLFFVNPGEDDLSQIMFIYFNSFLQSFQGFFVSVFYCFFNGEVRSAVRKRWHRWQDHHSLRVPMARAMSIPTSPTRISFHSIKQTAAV
T4 sequence (P24387 whole entry): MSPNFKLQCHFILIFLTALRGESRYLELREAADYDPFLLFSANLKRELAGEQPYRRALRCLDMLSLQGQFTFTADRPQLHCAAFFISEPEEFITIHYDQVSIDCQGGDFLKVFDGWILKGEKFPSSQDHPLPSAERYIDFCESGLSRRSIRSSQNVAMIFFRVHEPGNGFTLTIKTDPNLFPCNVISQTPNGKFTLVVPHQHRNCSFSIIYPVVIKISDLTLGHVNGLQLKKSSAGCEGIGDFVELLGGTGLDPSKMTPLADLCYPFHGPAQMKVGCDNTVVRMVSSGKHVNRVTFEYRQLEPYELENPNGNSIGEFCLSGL

[12] = molecular target: T4, Corticotropin-releasing factor receptor 2/Corticotropin-releasing factor-binding protein; assay: activators of CRF receptor 2 with binding protein – uHTS hits, confirmation (AID 602473); format: functional; conditions: read-out: EC50_Mean
[13] = molecular target: T5, Replicative DNA helicase DnaB (Mycobacterium tuberculosis, UniProt P9WMR3); assay: DnaB intein splicing inhibitors, dose response, biochemical, cell-free fluorescence (AID 449749); format: functional
T5 sequence (P9WMR3 whole entry): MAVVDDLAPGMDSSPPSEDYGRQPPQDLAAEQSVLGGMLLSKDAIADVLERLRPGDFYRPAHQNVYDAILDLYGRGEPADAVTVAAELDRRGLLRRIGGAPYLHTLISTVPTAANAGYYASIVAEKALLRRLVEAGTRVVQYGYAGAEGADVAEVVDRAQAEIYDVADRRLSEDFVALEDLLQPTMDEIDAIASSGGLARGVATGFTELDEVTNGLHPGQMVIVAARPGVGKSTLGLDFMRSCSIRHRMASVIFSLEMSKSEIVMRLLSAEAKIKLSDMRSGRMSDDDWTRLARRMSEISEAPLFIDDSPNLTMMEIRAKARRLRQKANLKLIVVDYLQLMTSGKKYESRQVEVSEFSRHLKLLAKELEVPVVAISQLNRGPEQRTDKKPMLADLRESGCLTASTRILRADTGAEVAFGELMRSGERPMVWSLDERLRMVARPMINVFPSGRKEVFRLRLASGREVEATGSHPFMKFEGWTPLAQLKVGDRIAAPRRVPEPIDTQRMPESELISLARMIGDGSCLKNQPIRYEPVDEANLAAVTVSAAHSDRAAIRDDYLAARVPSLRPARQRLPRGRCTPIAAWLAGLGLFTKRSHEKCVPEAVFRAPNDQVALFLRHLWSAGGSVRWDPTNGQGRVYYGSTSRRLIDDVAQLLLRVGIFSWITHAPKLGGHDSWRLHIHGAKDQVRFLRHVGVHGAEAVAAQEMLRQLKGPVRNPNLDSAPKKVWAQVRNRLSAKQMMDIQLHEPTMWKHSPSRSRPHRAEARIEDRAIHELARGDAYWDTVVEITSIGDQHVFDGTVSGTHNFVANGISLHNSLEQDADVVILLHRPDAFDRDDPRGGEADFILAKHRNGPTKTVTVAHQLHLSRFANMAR

[14] = molecular target: Peroxisome proliferator-activated receptor gamma/Nuclear receptor coactivator 1 (Homo sapiens, UniProt P37231); format: functional;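 note: agonist potency as compounds enhance coactivator SRC-1 recruitment to PPARgamma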
Peroxisome proliferator-activated receptor gamma/Nuclear receptor coactivator 1, sequence (P37231 whole entry): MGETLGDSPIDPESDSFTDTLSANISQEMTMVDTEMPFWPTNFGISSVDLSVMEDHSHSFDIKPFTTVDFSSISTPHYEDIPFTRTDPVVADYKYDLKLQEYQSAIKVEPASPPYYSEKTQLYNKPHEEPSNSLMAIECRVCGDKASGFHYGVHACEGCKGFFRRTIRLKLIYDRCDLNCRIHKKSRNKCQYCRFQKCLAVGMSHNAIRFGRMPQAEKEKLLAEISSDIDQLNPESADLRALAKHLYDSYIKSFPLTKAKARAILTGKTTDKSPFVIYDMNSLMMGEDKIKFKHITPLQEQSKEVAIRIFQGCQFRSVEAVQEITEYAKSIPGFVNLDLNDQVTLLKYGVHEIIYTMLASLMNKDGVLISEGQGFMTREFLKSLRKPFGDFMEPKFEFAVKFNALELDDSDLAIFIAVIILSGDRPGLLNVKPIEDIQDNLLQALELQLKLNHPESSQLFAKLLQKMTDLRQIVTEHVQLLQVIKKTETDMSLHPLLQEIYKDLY
Peroxisome proliferator-activated receptor gamma/Nuclear receptor coactivator 1, sequence (Q15788 whole entry, further chain): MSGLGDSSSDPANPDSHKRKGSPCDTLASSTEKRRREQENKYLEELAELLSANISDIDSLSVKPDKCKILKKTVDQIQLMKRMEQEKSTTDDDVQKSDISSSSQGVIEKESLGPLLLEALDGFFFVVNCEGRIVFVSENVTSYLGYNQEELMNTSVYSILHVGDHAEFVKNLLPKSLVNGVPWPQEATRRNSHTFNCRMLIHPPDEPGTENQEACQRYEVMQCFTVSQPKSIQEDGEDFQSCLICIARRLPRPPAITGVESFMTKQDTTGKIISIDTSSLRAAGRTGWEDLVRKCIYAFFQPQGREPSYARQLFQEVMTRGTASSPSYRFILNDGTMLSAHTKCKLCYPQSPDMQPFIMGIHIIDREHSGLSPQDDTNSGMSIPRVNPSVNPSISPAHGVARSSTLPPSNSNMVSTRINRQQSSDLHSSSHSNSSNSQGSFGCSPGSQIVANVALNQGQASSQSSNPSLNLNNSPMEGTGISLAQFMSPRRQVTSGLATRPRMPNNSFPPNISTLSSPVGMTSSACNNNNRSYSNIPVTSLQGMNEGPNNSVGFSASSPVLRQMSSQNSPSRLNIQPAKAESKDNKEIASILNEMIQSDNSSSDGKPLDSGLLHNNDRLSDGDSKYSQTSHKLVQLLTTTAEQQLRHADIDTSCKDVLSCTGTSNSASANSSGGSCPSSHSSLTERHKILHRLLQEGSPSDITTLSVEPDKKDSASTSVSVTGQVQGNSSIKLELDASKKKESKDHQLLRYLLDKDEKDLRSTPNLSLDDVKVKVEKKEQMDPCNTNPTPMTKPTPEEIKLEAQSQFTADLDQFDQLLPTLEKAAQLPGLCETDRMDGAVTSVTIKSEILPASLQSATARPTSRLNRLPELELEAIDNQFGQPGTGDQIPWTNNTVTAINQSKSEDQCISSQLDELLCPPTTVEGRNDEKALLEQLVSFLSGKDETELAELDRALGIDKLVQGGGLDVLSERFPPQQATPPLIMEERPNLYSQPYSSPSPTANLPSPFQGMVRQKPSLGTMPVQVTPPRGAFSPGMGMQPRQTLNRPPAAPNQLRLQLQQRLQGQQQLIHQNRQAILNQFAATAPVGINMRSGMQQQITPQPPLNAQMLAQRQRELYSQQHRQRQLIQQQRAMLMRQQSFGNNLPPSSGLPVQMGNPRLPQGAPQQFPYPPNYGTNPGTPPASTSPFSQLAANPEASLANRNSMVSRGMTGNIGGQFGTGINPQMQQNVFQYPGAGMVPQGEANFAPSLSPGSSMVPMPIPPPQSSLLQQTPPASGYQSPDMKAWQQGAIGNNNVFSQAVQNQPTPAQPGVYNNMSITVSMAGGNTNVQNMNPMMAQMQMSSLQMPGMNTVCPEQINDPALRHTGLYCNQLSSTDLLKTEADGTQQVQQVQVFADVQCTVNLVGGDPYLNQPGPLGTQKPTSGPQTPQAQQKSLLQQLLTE

[15] = growth suppression of beta-catenin-knockout colon cells, dose response, cell-based, HCT116, human colon tumor (AID 1045); format: functional;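 note: HCT116 colon tumor cells with beta catenin knocked out; cells exposed to compound for 60 hours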
[16] = growth suppression of PTEN-null colon cells, dose response, cell-based, HCT116 PTEN knockout (AID 1047); format: functional;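 note: HCT116 colon tumor cells with PTEN knocked out; cells exposed to compound for 60 hours before readout; potency for loss of cell viability measured by luminescence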
[17] = microbe, parasite or virus in culture; format: functional; conditions: Mycobacterium tuberculosis
Protein RecA = molecular target: T6, Protein RecA (Mycobacterium tuberculosis, UniProt P9WHJ3); assay: Fluorescence Cell-Free Homogeneous Dose Retest to Identify Inhibitors of RecA-Intein Splicing Activity. [Related pubchem assays (depositor defined):AID2097, AID2223, AID489010, AID492950]; format: functional
T6 sequence (P9WHJ3 whole entry): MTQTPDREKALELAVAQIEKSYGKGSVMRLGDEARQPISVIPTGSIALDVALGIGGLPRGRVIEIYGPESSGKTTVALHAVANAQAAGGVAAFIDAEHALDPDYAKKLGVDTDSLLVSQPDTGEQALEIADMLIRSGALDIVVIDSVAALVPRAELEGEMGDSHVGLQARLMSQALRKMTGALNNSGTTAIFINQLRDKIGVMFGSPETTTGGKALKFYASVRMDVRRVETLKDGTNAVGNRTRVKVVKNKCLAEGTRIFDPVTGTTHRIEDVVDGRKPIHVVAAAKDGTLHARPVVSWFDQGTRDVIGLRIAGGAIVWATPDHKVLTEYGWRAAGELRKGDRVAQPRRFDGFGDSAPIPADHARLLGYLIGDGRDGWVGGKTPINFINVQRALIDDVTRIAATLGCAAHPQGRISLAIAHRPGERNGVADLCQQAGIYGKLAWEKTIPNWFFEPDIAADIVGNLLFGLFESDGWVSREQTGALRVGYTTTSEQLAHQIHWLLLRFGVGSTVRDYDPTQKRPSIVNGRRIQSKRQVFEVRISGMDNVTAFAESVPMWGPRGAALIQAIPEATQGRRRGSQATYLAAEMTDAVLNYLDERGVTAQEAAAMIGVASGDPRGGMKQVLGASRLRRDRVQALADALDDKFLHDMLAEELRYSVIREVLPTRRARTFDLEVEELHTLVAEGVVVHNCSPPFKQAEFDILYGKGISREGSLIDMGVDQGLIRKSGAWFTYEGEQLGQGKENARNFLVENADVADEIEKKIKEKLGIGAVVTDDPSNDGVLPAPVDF

[18] = molecular target: Peroxisome proliferator-activated receptor gamma/Nuclear receptor coactivator 3 (Homo sapiens, UniProt P37231); format: functional;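 note: agonist potency for raising coactivator recruitment to the receptor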
[19] = molecular target: Peroxisome proliferator-activated receptor gamma/Nuclear receptor coactivator 2 (Homo sapiens, UniProt P37231); format: functional;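 note: agonist potency for raising coactivator recruitment to the receptor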
Peroxisome proliferator-activated receptor gamma/Nuclear receptor coactivator 2, sequence (P37231 whole entry): as the sequence (P37231 whole entry) above
Peroxisome proliferator-activated receptor gamma/Nuclear receptor coactivator 2, sequence (Q15596 whole entry, further chain): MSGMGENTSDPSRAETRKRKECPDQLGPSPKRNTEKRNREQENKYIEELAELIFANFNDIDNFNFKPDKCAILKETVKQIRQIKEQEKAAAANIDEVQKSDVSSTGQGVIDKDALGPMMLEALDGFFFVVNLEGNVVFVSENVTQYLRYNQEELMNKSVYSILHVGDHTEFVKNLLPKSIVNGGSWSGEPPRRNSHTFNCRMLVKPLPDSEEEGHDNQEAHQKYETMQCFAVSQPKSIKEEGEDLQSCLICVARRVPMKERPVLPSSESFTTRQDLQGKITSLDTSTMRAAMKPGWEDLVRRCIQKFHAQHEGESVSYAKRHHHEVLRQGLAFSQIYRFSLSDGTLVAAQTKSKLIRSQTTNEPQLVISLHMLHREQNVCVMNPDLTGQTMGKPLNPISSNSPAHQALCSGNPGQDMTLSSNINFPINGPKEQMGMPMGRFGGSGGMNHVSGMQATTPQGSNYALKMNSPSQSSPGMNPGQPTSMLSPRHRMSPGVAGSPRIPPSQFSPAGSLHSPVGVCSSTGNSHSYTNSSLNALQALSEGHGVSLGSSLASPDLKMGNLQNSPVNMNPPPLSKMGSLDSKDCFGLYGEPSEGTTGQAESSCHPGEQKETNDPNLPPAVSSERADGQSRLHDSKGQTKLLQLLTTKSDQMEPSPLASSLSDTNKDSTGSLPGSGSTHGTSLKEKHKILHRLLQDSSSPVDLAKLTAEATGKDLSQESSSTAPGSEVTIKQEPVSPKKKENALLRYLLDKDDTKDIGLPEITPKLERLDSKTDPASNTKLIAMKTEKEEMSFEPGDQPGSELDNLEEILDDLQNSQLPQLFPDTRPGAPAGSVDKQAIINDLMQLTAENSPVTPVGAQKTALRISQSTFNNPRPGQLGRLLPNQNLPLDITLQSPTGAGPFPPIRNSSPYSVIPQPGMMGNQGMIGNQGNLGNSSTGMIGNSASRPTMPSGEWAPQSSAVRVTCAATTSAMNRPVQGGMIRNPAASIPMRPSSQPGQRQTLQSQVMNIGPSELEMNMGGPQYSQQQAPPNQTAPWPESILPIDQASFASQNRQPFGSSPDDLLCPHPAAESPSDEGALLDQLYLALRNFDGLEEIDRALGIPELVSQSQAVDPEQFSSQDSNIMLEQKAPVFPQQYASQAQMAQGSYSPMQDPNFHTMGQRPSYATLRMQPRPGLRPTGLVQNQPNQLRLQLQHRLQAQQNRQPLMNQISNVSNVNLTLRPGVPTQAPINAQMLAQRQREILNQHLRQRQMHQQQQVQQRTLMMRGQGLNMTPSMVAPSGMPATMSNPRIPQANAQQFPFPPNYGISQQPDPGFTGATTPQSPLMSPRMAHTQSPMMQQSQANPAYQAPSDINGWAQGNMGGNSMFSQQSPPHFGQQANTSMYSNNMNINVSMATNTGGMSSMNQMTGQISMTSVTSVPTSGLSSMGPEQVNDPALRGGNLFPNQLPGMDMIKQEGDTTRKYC

CCN1CCc2c(sc(NC(=O)c3cc4ccccc4cc3OC)c2C(N)=O)C1
EC50 [1]: 40.7 µM (active)
IC50 (Prothrombin): 32.5 µM (active)
AC50 [2]: 3.75 µM (active)
EC50 (BJ [3]): 0.937 µM (active)
EC50 (BJ [4]): 4.46 µM (inconclusive)
IC50 [5]: > 100 µM (inactive)
IC50 [6]: 26.3 µM (active)
EC50 (BJ [7]): 4.91 µM (inconclusive)
EC50 [8]: 6.38 µM (active)
EC50 (BJ [9]): 5.67 µM (inconclusive)

COc1ccc(Cn2c(-c3ccco3)nc3c(c(=O)c4ccccc4n3C)c2=O)cc1
IC50 [10]: 39 µM (inactive)
IC50 [11]: > 47.1 µM (inactive)
EC50 [12]: > 53 µM (inactive)

O=c1c(Cl)nc2cc(Cl)ccc2n1CCNc1ncc(C(F)(F)F)cc1Cl
AC50 [13]: > 120 µM (inactive)
EC50 (BJ [3]): 0.574 µM (inconclusive)
EC50 [14]: 19.8 µM (not active)
EC50 [15]: 4.66 µM (active)
EC50 (BJ [4]): 2.67 µM (inconclusive)
EC50 [16]: 4.75 µM (active)
CC50 [17]: 11.5 µM (active)
EC50 (Protein RecA): 0.951 µM (active)
EC50 [18]: 36.3 µM (not active)
EC50 (BJ [7]): 1.98 µM (active)
EC50 [19]: 20.1 µM (not active)
EC50 [8]: 2.81 µM (inconclusive)
EC50 (BJ [9]): 6.1 µM (inconclusive)
